Reference: patent EP2444088A1, “Amino derivatives for the treatment of proliferative skin disorders” (Almirall, S.A., priority 2010, dated 2012)

Legend:
[1] = system: premalignant and malignant human cutaneous keratinocytes; conditions: cytostasis was followed by apoptosis; cited from earlier work
[2] = system: HaCaT cells; assay: Proliferation assay (HaCaT cells, ATP-lite bioluminescent readout of intracellular ATP); type: cell-based; conditions: Homo sapiens, 144 h, absolute IC50 of inhibition of proliferation, 10% FBS, 6 days incubation, mean of 3 experiments
Protocol: Human adult low calcium high temperature (HaCaT) cells are spontaneously transformed human keratinocytes that have the characteristics of basal epidermal keratinocytes (Boukamp et at. J Cell Biol 106:761-771, 1988) This line can be used as in vitro model for highly proliferative epidermis (Ockenfels et at., Arch Dermatol Res 287:301-309, 1995)
HaCaT cells exponentially growing were plated in clear bottom, white walled, 96-well plates at a density of 5000 cells/well in 100 µL Dulbecco's modified Eagle's medium (DMEM) containing 1% fetal bovine serum (FBS), and incubated overnight at 37 °C, 5% CO2. Next day, media in each well was replaced with 50 µL growth medium containing 10% FBS. 50 µL of compounds at two-fold the desired concentration in growth medium containing 2% dimethyl sulfoxide (DMSO) were added to the wells. Six wells were replaced with fresh 100 µL of medium containing 1% FBS and 1% DMSO and were used as a control of no proliferation. Six other wells were replaced with fresh 100 µL of medium containing 10% FBS and 1% DMSO and were used as a control of top proliferation. Each compound concentration was tested in triplicate and ranged from 100 µM to 0.4 µM in half-log serial dilutions. Plates were incubated at 37°C 5% CO2 for 6 consecutive days. […] Results were expressed as a % of inhibition of proliferation in relation to the top and bottom proliferation wells. […]

Row | SMILES | effect on premalignant and malignant human cutaneous keratinocytes [1] | IC50 [2]
1 | CC(O)=C(C#N)C(=O)Nc1ccc(C(F)(F)F)cc1 [Teriflunomide, 2-Butenamide, 2-cyano-3-hydroxy-N-[4-(trifluoromethyl)phenyl]-] | dose- and time-dependent cytostasis | –
2 | COc1cccc(-c2cc(F)c(Nc3ncccc3C(=O)O)c(F)c2)c1 [2-(3,5-difluoro-3'-methoxybiphenyl-4-ylamino)nicotinic acid] | – | 580 nM
3 | O=C(O)c1cc(C2CC2)ccc1Nc1cnc(-c2c(F)cccc2F)nc1 [5-cyclopropyl-2-(2-(2,6-difluorophenyl)pyrimidin-5-ylamino)benzoic acid] | – | 260 nM
